IC50 data for 16 compounds are collected here from patent US20240376085A1 (Janssen Pharmaceutica NV, priority 2021, published 2024).

What is called IC50 is the concentration needed to halve the response being measured. Higher therefore signals lower potency.

For assay [1], the target named is T1, IL-17A : IL-17RA binding (Homo sapiens, UniProt Q16552, K93Q).
T1 construct: Name: IL-17A-Flag
Briefly: IL-17A(FLAG-tagged):IL-17RA(His-tagged) binding disruption Eu-HTRF assay, Protocol 1. As to conditions: FLAG-IL-17A 2.5 nM at 2x final concentration; average if tested more than once. From the text:
An antibody directed against the FLAG tag of IL-17A (SEQ ID NO: 1) is labeled with the HTRF donor chromophore (Europium-cryptate). IL-17A is present as a dimer that is “locked into” this quaternary structure due to the formation of loop-spanning […] disulfide bridges. The construct of IL-17RA used in the assay excludes the […] portion of the receptor and is fused to a C-terminal 10×His tag (SEQ ID NO:2). An antibody directed against the His tag of the IL-17RA chimera is labeled with the HTRF acceptor chromophore (“D2”). The fluorescence-resonance energy transfer (FRET) depends on the vicinity of the donor chromophore to the acceptor, and interruption of the binding between the IL-17A and IL-17RA causes the reduction/loss of FRET. Therefore, this assay allows to evaluate the compound effect on the binding IL-17A and IL-17RA by monitoring the fluorescence intensity of donor vs acceptor. The assay was run using either Protocol 1 or Protocol 2 as described below.
Protocol 1. 40 nl of 2-fold serial diluted compound solution for total 22 dilution points is added into each well of a 1536-well, white, low-volume, non-binding plate (Greiner #782904), then 2 μl of FLAG tagged IL-17A at 2× final concentration (2.5 nM) in solution of PBS+0.01% Triton-X100 is added to each well. The assay plate is briefly centrifuged then incubated for 1 h at rt. A mixed solution is prepared containing 2×5 nM 10HIS×IL-17RA, 2×2.5 nM Eu-anti-FLAG (CISBIO), 2×5 nM D2-anti-HIS (CISBIO) in PBS+0.01% Triton-X100+200 mM Potassium Fluoride (Sigma 60238) and 2 μl of mix is added to each well of the assay plate. The plate is briefly centrifuged then incubated for 2 h at rt. The HTRF intensities at the wavelength of donor (620 nm) and acceptor (665 nm) are measured using BMG Pherastar. The ratio between intensities at two wavelengths is calculated and plotted against the compound concentration and the data is fitted to a one-site competition model to yield IC50 of the compound.
(In general: In TR-FRET formats the signal depends on donor and acceptor labels being close together.)

In assay [2] the test system is IL-17A-induced G-CSF production in human normal keratinocyte (NHK). Nature of the assay: NHK assay: IL-17A-induced G-CSF production in normal human keratinocytes. It is filed as cell-based. As to conditions: 24 h, IL-17A 5 ng/mL, average if tested more than once. As to the method:
IL-17A acts directly on keratinocytes through binding to dimeric receptor IL-17RA/RC and drives the production of a number of inflammatory mediators known to be elevated in psoriasis lesional tissue. IL-17A small molecule inhibitors that block the IL-17A to interact with IL-17R would inhibit the IL-17A signaling in its targeted cells such as keratinocytes. The compound functional activity is evaluated for its impact on IL-17A-induced G-CSF production in human normal keratinocyte (NHK).
Adult normal human keratinocytes are cultured in keratinocyte growth medium (Lonza) in a flask till reaching ˜90% confluence, then cells are transferred to a 384-well plate at density of 3000-4000 cell/well. Recombinant human IL-17A (Gibco PHC9174) is pre-incubated with titrated compound or DMSO for 1 h at rt then added to the cell culture plate. The final concentration of IL-17A is 5 ng/mL and DMSO is 0.2%, in the culture containing 5% FBS. Cells are cultured/treated for 24 h at 37° C. Supernatants are collected and G-CSF production is measured through HTRF technology using Human G-CSF Kit (CisBio). G-CSF concentration was extrapolated from the standard curve and IC50 is determined using GraphPad Prism. Cell viability is also evaluated using CellTiter-Glo kit (Promega) and effect of compound on cell viability is compared to DMSO control.

T1 sequence (Q16552 with tags, fused parts or gaps K93Q): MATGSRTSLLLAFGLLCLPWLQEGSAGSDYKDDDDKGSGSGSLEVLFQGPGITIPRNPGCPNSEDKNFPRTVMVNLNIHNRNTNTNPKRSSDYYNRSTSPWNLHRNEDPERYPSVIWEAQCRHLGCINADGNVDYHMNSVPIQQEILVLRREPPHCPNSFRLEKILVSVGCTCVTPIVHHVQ

In the case of `C[C@@H](NC(=O)CCC(F)(F)F)c1ccc2[nH]c([C@@H](NC(=O)C3CC34CC4)C3CCC(F)(F)CC3)nc2c1` (stereo partly drawn) [Example 110, N—((S)-(4,4-Difluorocyclohexyl)(5-((R)-1-(4,4,4-trifluorobutanamido)ethyl)-1H-benzo[d]imidazol-2-yl)methyl)spiro[2.2]pentane-1-carboxamide], the half-inhibitory concentration (IC50) is greater than 100 nM in assay [1] and greater than 100 nM in assay [2] (Homo sapiens, Keratinocyte).

In the case of `C[C@@H](NC(=O)CCC(F)(F)F)c1ccc2[nH]c([C@@H](NC(=O)c3cnn(CCC(F)(F)F)c3)C3CCC(F)(F)CC3)nc2c1` [Example 1, N—[(S)-(4,4-Difluorocyclohexyl)-[6-[(1R)-1-(4,4,4-trifluorobutanoylamino)ethyl]-1H-benzimidazol-2-yl]methyl]-1-(3,3,3-trifluoropropyl)pyrazole-4-carboxamide], the half-maximal inhibitory concentration (IC50) in assay [1] was greater than 100 nM; in assay [2] (Homo sapiens, Keratinocyte), greater than 100 nM.

For the compound `CC(C)n1nccc1C(=O)N[C@@H](CC(C)(C)C(F)F)c1nc2ccc([C@H](NC(=O)CC3CC(F)(F)C3)C3CC3)cc2[nH]1` [Example 234, N—((S)-1-(6-((R)-Cyclopropyl(2-(3,3-difluorocyclobutyl)acetamido)methyl)-1H-benzo[d]imidazol-2-yl)-4,4-difluoro-3,3-dimethylbutyl)-1-isopropyl-1H-pyrazole-5-carboxamide], the IC50 was 50 to 100 nM in assay [1] and 50 to 100 nM in assay [2] (Homo sapiens, Keratinocyte).

As for `C[C@@H](NC(=O)CCC(F)(F)F)c1ccc2[nH]c([C@@H](NC(=O)c3cnn(CC4CC4(F)F)n3)C3CCC(F)(F)CC3)nc2c1` (stereo partly drawn) [Example 81, N—((S)-(4,4-Difluorocyclohexyl)(5-((R)-1-(4,4,4-trifluorobutanamido)ethyl)-1H-benzo[d]imidazol-2-yl)methyl)-2-((2,2-difluorocyclopropyl)methyl)-2H-1,2,3-triazole-4-carboxamide], the IC50 is greater than 100 nM in assay [1] and greater than 100 nM in assay [2] (Homo sapiens, Keratinocyte).

On to `C[C@@H](NC(=O)CCC(F)(F)F)c1ccc2[nH]c([C@@H](NC(=O)c3cnn(CCOC(F)F)n3)C3CCC(F)(F)CC3)nc2c1` [Example 33, N—[(S)-(4,4-Difluorocyclohexyl)-[6-[(1R)-1-(4,4,4-trifluorobutanoylamino)ethyl]-1H-benzimidazol-2-yl]methyl]-2-[2-(difluoromethoxy)ethyl]triazole-4-carboxamide], for which the IC50 in assay [1] was greater than 100 nM; in assay [2] (Homo sapiens, Keratinocyte) it was greater than 100 nM.

Turning to `CCC(NC(=O)CCC(F)(F)F)c1ccc2[nH]c([C@@H](NC(=O)c3ccnn3C)C3CCC(F)(F)CC3)nc2c1` (single isomer, unassigned) [Example 53, N—((S)-(4,4-Difluorocyclohexyl)(5-((R*)-1-(4,4,4-trifluorobutanamido)propyl)-1H-benzo[d]imidazol-2-yl)methyl)-1-methyl-1H-pyrazole-5-carboxamide], the half-maximal inhibitory concentration (IC50) in assay [1] was greater than 100 nM; in assay [2], 50 to 100 nM.

For `C[C@@H](NC(=O)CC(C(F)(F)F)C(F)(F)F)c1ccc2[nH]c([C@@H](NC(=O)c3ccnn3CCC(F)(F)F)C3CCC(F)(F)CC3)nc2c1` [Example 126, N—((S)-(4,4-Difluorocyclohexyl)(5-((R)-1-(4,4,4-trifluoro-3-(trifluoromethyl)butanamido)ethyl)-1H-benzo[d]imidazol-2-yl)methyl)-1-(3,3,3-trifluoropropyl)-1H-pyrazole-5-carboxamide], the IC50 in assay [1] was greater than 100 nM; in assay [2] (Homo sapiens, Keratinocyte) it was 50 to 100 nM.

Turning to `C[C@@H](NC(=O)CCC(F)(F)F)c1ccc2[nH]c([C@@H](NC(=O)C3CC34CCC4)C3CCC(F)(F)CC3)nc2c1` (stereo partly drawn) [Example 111, N—((S)-(4,4-Difluorocyclohexyl)(5-((R)-1-(4,4,4-trifluorobutanamido)ethyl)-1H-benzo[d]imidazol-2-yl)methyl)spiro[2.3]hexane-1-carboxamide], the IC50 in assay [1] is greater than 100 nM; in assay [2] (Homo sapiens, Keratinocyte), greater than 100 nM.

`C[C@@H](NC(=O)CCC(F)(F)F)c1ccc2[nH]c([C@@H](NC(=O)[C@@H]3C[C@@H]3C#N)C3CCC(F)(F)CC3)nc2c1` [Example 102, cis-(1,2)-2-Cyano-N—((S)-(4,4-difluorocyclohexyl)(5-((R)-1-(4,4,4-trifluorobutanamido)ethyl)-1H-benzo[d]imidazol-2-yl)methyl)cyclopropane-1-carboxamide]: the 50% inhibitory concentration (IC50) in assay [1] was greater than 100 nM; in assay [2] (Homo sapiens, Keratinocyte), greater than 100 nM.

For `C[C@@H](NC(=O)CCC(F)(F)F)c1ccc2[nH]c([C@@H](NC(=O)c3cnn(CC4CC4)n3)C3CCC(F)(F)CC3)nc2c1` [Example 8, 2-(Cyclopropylmethyl)-N—[(S)-(4,4-difluorocyclohexyl)-[6-[(1R)-1-(4,4,4-trifluorobutanoylamino)ethyl]-1H-benzimidazol-2-yl]methyl]triazole-4-carboxamide], the IC50 in assay [1] is greater than 100 nM; in assay [2] (Homo sapiens, Keratinocyte) it was greater than 100 nM.

Consider `Cc1c(C(=O)N[C@H](c2nc3cc([C@@H](C)NC(=O)CCC(F)(F)F)ccc3[nH]2)C2CCC(F)(F)CC2)cnn1CCC(F)(F)F` [Example 5, N—[(S)-(4,4-Difluorocyclohexyl)-[6-[(1R)-1-(4,4,4-trifluorobutanoylamino)ethyl]-1H-benzimidazol-2-yl]methyl]-5-methyl-1-(3,3,3-trifluoropropyl)pyrazole-4-carboxamide], for which the IC50 in assay [1] is greater than 100 nM; in assay [2] (Homo sapiens, Keratinocyte), greater than 100 nM.

Regarding `Cc1nonc1C(=O)N[C@H](c1nc2ccc([C@H](NC(=O)CC3CC(F)(F)C3)C3CC3)cc2[nH]1)C1CCOC(C)(C)C1` (single isomer, unassigned) [Example 173, N—((S)-(6-((R)-Cyclopropyl(2-(3,3-difluorocyclobutyl)acetamido)methyl)-1H-benzo[d]imidazol-2-yl)((S*)-2,2-dimethyltetrahydro-2H-pyran-4-yl)methyl)-4-methyl-1,2,5-oxadiazole-3-carboxamide], the IC50 in assay [1] is greater than 100 nM; in assay [2] (Homo sapiens, Keratinocyte) it was greater than 100 nM.

For the compound `C[C@@H](NC(=O)CCC(F)(F)F)c1ccc2[nH]c([C@@H](NC(=O)c3cn(CC(F)(F)F)nn3)C3CCC(F)(F)CC3)nc2c1` [Example 24, N—[(S)-(4,4-Difluorocyclohexyl)-[6-[(1R)-1-(4,4,4-trifluorobutanoylamino)ethyl]-1H-benzimidazol-2-yl]methyl]-1-(2,2,2-trifluoroethyl)triazole-4-carboxamide], the IC50 in assay [1] was greater than 100 nM; in assay [2] (Homo sapiens, Keratinocyte), greater than 100 nM.

On to `C[C@@H](NC(=O)CCC(F)(F)F)c1ccc2[nH]c([C@@H](NC(=O)c3cnn(CCC(F)(F)F)n3)C3CCC(F)(F)CC3)nc2c1` [Example 3, N—[(S)-(4,4-Difluorocyclohexyl)-[6-[(1R)-1-(4,4,4-trifluorobutanoylamino)ethyl]-1H-benzimidazol-2-yl]methyl]-2-(3,3,3-trifluoropropyl)triazole-4-carboxamide], for which the half-inhibitory concentration (IC50) in assay [1] was greater than 100 nM; in assay [2] (Homo sapiens, Keratinocyte) it was greater than 100 nM.

For the compound `CC(C)n1nccc1C(=O)N[C@@H](COC(C)C(F)(F)F)c1nc2ccc([C@H](NC(=O)CC3CC(F)(F)C3)C3CC3)cc2[nH]1` (relative stereo) [Example 156, N—((R*)-1-(6-((R)-Cyclopropyl(2-(3,3-difluorocyclobutyl)acetamido)methyl)-1H-benzo[d]imidazol-2-yl)-2-(((R)-1,1,1-trifluoropropan-2-yl)oxy)ethyl)-1-isopropyl-1H-pyrazole-5-carboxamide], the IC50 was 50 to 100 nM in assay [1] and 50 to 100 nM in assay [2] (Homo sapiens, Keratinocyte).

Compound `C[C@@H](NC(=O)CCC(F)(F)F)c1ccc2[nH]c([C@@H](NC(=O)c3nnc(CCC(F)(F)F)o3)C3CCC(F)(F)CC3)nc2c1` [Example 187, N—((S)-(4,4-Difluorocyclohexyl)(5-((R)-1-(4,4,4-trifluorobutanamido)ethyl)-1H-benzo[d]imidazol-2-yl)methyl)-5-(3,3,3-trifluoropropyl)-1,3,4-oxadiazole-2-carboxamide] showed an IC50 in assay [2] (Homo sapiens, Keratinocyte) greater than 100 nM.
